Results taken from patent US20090299044A1 (priority 2006, published 2009).
Bridge positions count the residues as written; N and C are the ends. Square brackets hold non-standard residues; d marks the D form. Peptide text beside a SMILES is read from it. 1Nal = N[C@@H](Cc1cccc2ccccc12)C(=O)O

Assays:
human Kv1.1 (HEK293) = target: T1, human Kv1.1 (HEK293) (Homo sapiens, UniProt Q09470); test: cell-based
T1 construct: expressed in transfected cells; host or cells: HEK293

human Kv1.3 (CHO) = target: T2, human Kv1.3 (CHO) (Homo sapiens, UniProt P22001); test: cell-based
T2 construct: expressed in transfected cells; host or cells: CHO
T2 sequence (P22001 whole entry): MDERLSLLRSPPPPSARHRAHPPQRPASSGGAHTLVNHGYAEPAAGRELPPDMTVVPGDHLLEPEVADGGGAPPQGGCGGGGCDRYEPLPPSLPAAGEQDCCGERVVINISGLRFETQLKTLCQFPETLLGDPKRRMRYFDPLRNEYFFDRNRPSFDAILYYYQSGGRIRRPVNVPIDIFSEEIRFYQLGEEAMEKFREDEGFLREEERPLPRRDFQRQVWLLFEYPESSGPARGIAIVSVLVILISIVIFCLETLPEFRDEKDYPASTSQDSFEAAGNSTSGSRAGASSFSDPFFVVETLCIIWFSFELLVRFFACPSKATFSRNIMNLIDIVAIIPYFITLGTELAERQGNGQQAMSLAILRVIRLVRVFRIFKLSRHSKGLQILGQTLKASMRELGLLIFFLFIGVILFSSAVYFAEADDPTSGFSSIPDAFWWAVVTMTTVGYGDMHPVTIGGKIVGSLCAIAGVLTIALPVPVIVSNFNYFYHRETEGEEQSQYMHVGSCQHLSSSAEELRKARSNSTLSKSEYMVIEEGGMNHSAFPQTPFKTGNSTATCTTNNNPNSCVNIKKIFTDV

T1 sequence (Q09470 whole entry): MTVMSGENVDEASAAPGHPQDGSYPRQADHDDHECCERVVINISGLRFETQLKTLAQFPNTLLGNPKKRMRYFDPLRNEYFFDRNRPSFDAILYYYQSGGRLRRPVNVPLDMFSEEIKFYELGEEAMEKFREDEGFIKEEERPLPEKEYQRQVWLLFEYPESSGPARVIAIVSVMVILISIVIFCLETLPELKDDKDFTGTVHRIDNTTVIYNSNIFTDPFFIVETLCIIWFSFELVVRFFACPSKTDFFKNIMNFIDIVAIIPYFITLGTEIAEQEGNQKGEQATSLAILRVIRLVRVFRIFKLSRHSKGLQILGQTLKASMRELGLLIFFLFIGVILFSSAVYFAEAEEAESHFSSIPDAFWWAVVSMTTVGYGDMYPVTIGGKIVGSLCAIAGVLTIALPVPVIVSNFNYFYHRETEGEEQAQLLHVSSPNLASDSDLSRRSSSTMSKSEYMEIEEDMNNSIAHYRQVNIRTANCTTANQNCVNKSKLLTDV

| Compound | IC50 (human Kv1.1 (HEK293)) [nM] | IC50 (human Kv1.3 (CHO)) [nM] |
| --- | --- | --- |
| CC[C@H](C)[C@@H]1NC(=O)[C@H](CCCCN)NC(=O)[C@@H](NC(=O)[C@H](CCCCN)NC(=O)[C@@H](NC(=O)[C@H](Cc2cccc3ccccc23)NC(=O)[C@@H](NC(=O)[C@@H](NC(=O)[C@@H](NC(=O)CN)C(C)C)[C@@H](C)CC)[C@@H](C)CC)C(C)C)CSSC[C@@H]2NC(=O)[C@H](CCCCN)NC(=O)CNC(=O)[C@H](Cc3ccccc3)NC(=O)[C@H](CCCNC(=N)N)NC(=O)[C@H](CCSC)NC(=O)CNC(=O)[C@H](C)NC(=O)[C@H](CCCCN)NC(=O)[C@H](CCCCN)NC(=O)[C@@H]3CSSC[C@@H](C(=O)N[C@H](C(=O)N4CCC[C@H]4C(=O)N[C@@H](CCCCN)C(=O)O)[C@@H](C)O)NC(=O)[C@H](Cc4c[nH]cn4)NC(=O)[C@H](CSSC[C@H](NC(=O)[C@H](CCC(N)=O)NC(=O)[C@H](CCCNC(=N)N)NC(=O)[C@H](CO)NC1=O)C(=O)N[C@@H](CC(C)C)C(=O)N[C@@H](CCC(=O)O)C(=O)N1CCC[C@H]1C(=O)N3)NC(=O)[C@H](CCCCN)NC(=O)CNC(=O)[C@H](CC(N)=O)NC(=O)[C@H](CCSC)NC2=O [N5Nal] (H-GVII[1Nal]VKCKISRQCLEPCKKAGMRFGKCMNGKCHCTPK-OH; disulfide 8-28, 14-33, 18-35) | < 0.00152 | 0.0218 |
| CC[C@H](C)[C@@H]1NC(=O)[C@H](CCCCN)NC(=O)[C@@H](NC(=O)[C@H](CCCCN)NC(=O)[C@@H](NC(=O)[C@H](CCCNC(=N)N)NC(=O)[C@@H](NC(=O)[C@@H](NC(=O)[C@@H](NC(=O)CN)C(C)C)[C@@H](C)CC)[C@@H](C)CC)C(C)C)CSSC[C@@H]2NC(=O)[C@H](CCCCN)NC(=O)CNC(=O)[C@H](Cc3ccccc3)NC(=O)[C@H](CCCNC(=N)N)NC(=O)[C@H](CCSC)NC(=O)CNC(=O)[C@H](C)NC(=O)[C@H](CCCCN)NC(=O)[C@H](CCCCN)NC(=O)[C@@H]3CSSC[C@@H](C(=O)N[C@H](C(=O)N4CCC[C@H]4C(=O)N[C@@H](CCCCN)C(=O)O)[C@@H](C)O)NC(=O)[C@H](Cc4c[nH]cn4)NC(=O)[C@H](CSSC[C@H](NC(=O)[C@H](CCC(N)=O)NC(=O)[C@H](CCCNC(=N)N)NC(=O)[C@H](CO)NC1=O)C(=O)N[C@@H](CC(C)C)C(=O)N[C@@H](CCC(=O)O)C(=O)N1CCC[C@H]1C(=O)N3)NC(=O)[C@H](CCCCN)NC(=O)CNC(=O)[C@H](CC(N)=O)NC(=O)[C@H](CCSC)NC2=O [N5R] (H-GVIIRVKCKISRQCLEPCKKAGMRFGKCMNGKCHCTPK-OH; disulfide 8-28, 14-33, 18-35) | 0.00215 | 0.0136 |
| CC[C@H](C)[C@@H]1NC(=O)[C@H](CCCCN)NC(=O)[C@@H](NC(=O)[C@H](CCCCN)NC(=O)[C@@H](NC(=O)[C@H](CC(N)=O)NC(=O)[C@@H](NC(=O)[C@@H](NC(=O)[C@@H](NC(=O)CN)C(C)C)[C@@H](C)CC)[C@@H](C)CC)C(C)C)CSSC[C@@H]2NC(=O)[C@H](CCCCN)NC(=O)CNC(=O)[C@H](Cc3ccccc3)NC(=O)[C@H](CCCNC(=N)N)NC(=O)[C@H](CCSC)NC(=O)CNC(=O)[C@H](C)NC(=O)[C@H](CCCCN)NC(=O)[C@H](CCCCN)NC(=O)[C@@H]3CSSC[C@@H](C(=O)N[C@H](C(=O)N4CCC[C@H]4C(=O)N[C@@H](CCCCN)C(=O)O)[C@@H](C)O)NC(=O)[C@H](Cc4c[nH]cn4)NC(=O)[C@H](CSSC[C@H](NC(=O)[C@H](CCC(N)=O)NC(=O)[C@H](CCCNC(=N)N)NC(=O)[C@H](CO)NC1=O)C(=O)N[C@@H](CC(C)C)C(=O)N[C@@H](CCC(=O)O)C(=O)N1CCC[C@H]1C(=O)N3)NC(=O)[C@H](CCCCN)NC(=O)CNC(=O)[C@H](CCCNC(=N)N)NC(=O)[C@H](CCSC)NC2=O [N30R] (H-GVIINVKCKISRQCLEPCKKAGMRFGKCMRGKCHCTPK-OH; disulfide 8-28, 14-33, 18-35) | 0.0457 | 0.0189 |
| CC[C@H](C)[C@@H]1NC(=O)[C@H](CCCCN)NC(=O)[C@@H](NC(=O)[C@H](CCCCN)NC(=O)[C@@H](NC(=O)[C@H](CC(N)=O)NC(=O)[C@@H](NC(=O)[C@@H](NC(=O)[C@@H](NC(=O)CN)C(C)C)[C@@H](C)CC)[C@@H](C)CC)C(C)C)CSSC[C@@H]2NC(=O)[C@H](CCCCN)NC(=O)CNC(=O)[C@H](Cc3ccccc3)NC(=O)[C@H](CCCNC(=N)N)NC(=O)[C@H](CCSC)NC(=O)CNC(=O)[C@H](C)NC(=O)[C@H](CCCCN)NC(=O)[C@H](CCCCN)NC(=O)[C@@H]3CSSC[C@@H](C(=O)N[C@H](C(=O)N4CCC[C@H]4C(=O)N[C@@H](CCCCN)C(=O)O)[C@@H](C)O)NC(=O)[C@H](Cc4c[nH]cn4)NC(=O)[C@H](CSSC[C@H](NC(=O)[C@H](CCC(N)=O)NC(=O)[C@H](CCCNC(=N)N)NC(=O)[C@H](CO)NC1=O)C(=O)N[C@@H](CC(C)C)C(=O)N[C@@H](CCC(=O)O)C(=O)N[C@@H](C)C(=O)N3)NC(=O)[C@H](CCCCN)NC(=O)CNC(=O)[C@H](CC(N)=O)NC(=O)[C@H](CCSC)NC2=O [P17A] (H-GVIINVKCKISRQCLEACKKAGMRFGKCMNGKCHCTPK-OH; disulfide 8-28, 14-33, 18-35) | 0.00908 | 0.0339 |
| CC[C@H](C)[C@@H]1NC(=O)[C@H](CCCCN)NC(=O)[C@@H](NC(=O)[C@H](CCCCN)NC(=O)[C@@H](NC(=O)[C@H](CC(N)=O)NC(=O)[C@@H](NC(=O)[C@@H](NC(=O)[C@@H](NC(=O)CN)C(C)C)[C@@H](C)CC)[C@@H](C)CC)C(C)C)CSSC[C@@H]2NC(=O)[C@H](CCCCN)NC(=O)CNC(=O)[C@H](Cc3ccccc3)NC(=O)[C@H](CCCNC(=N)N)NC(=O)[C@H](CCSC)NC(=O)CNC(=O)[C@H](C)NC(=O)[C@H](CCCCN)NC(=O)[C@H](CCCCN)NC(=O)[C@@H]3CSSC[C@@H](C(=O)N[C@H](C(=O)N4CCC[C@H]4C(=O)N[C@@H](CCCCN)C(=O)O)[C@@H](C)O)NC(=O)[C@H](Cc4c[nH]cn4)NC(=O)[C@H](CSSC[C@H](NC(=O)[C@H](CCC(N)=O)NC(=O)[C@H](CCCNC(=N)N)NC(=O)[C@H](CO)NC1=O)C(=O)N[C@@H](CC(C)C)C(=O)N[C@@H](CCC(=O)O)C(=O)N[C@@H](CCC(=O)O)C(=O)N3)NC(=O)[C@H](CCCCN)NC(=O)CNC(=O)[C@H](CC(N)=O)NC(=O)[C@H](CCSC)NC2=O [P17E] (H-GVIINVKCKISRQCLEECKKAGMRFGKCMNGKCHCTPK-OH; disulfide 8-28, 14-33, 18-35) | 0.00181 | 0.0145 |
| CC[C@H](C)[C@@H]1NC(=O)[C@H](CCCCN)NC(=O)[C@@H](NC(=O)[C@H](CCCCN)NC(=O)[C@@H](NC(=O)[C@H](CC(N)=O)NC(=O)[C@@H](NC(=O)[C@@H](NC(=O)[C@@H](NC(=O)CN)C(C)C)[C@@H](C)CC)[C@@H](C)CC)C(C)C)CSSC[C@@H]2NC(=O)[C@H](CCCCN)NC(=O)CNC(=O)[C@H](Cc3ccccc3)NC(=O)[C@H](CCCNC(=N)N)NC(=O)[C@H](CCSC)NC(=O)CNC(=O)[C@H](C)NC(=O)[C@H](CCCCN)NC(=O)[C@H](CCCCN)NC(=O)[C@@H]3CSSC[C@@H](C(=O)N[C@H](C(=O)N4CCC[C@H]4C(=O)N[C@@H](CCCCN)C(=O)O)[C@@H](C)O)NC(=O)[C@H](Cc4c[nH]cn4)NC(=O)[C@H](CSSC[C@H](NC(=O)[C@H](CCC(N)=O)NC(=O)[C@H](CCCNC(=N)N)NC(=O)[C@H](CO)NC1=O)C(=O)N[C@@H](CC(C)C)C(=O)N[C@@H](CCC(=O)O)C(=O)N[C@@H](Cc1cccc4ccccc14)C(=O)N3)NC(=O)[C@H](CCCCN)NC(=O)CNC(=O)[C@H](CC(N)=O)NC(=O)[C@H](CCSC)NC2=O [P17Nal] (H-GVIINVKCKISRQCLE[1Nal]CKKAGMRFGKCMNGKCHCTPK-OH; disulfide 8-28, 14-33, 18-35) | < 0.00152 | 0.0162 |
| CC[C@H](C)[C@@H]1NC(=O)[C@H](CCCCN)NC(=O)[C@@H](NC(=O)[C@H](CCCCN)NC(=O)[C@@H](NC(=O)[C@H](CC(N)=O)NC(=O)[C@@H](NC(=O)[C@@H](NC(=O)[C@@H](NC(=O)CN)C(C)C)[C@@H](C)CC)[C@@H](C)CC)C(C)C)CSSC[C@@H]2NC(=O)[C@H](CCCCN)NC(=O)CNC(=O)[C@H](Cc3ccccc3)NC(=O)[C@H](CCCNC(=N)N)NC(=O)[C@H](CCSC)NC(=O)CNC(=O)[C@H](C)NC(=O)[C@H](CCCCN)NC(=O)[C@H](CCCCN)NC(=O)[C@@H]3CSSC[C@@H](C(=O)N[C@H](C(=O)N4CCC[C@H]4C(=O)N[C@@H](CCCCN)C(=O)O)[C@@H](C)O)NC(=O)[C@H](Cc4c[nH]cn4)NC(=O)[C@H](CSSC[C@H](NC(=O)[C@H](CCC(N)=O)NC(=O)[C@H](CCCNC(=N)N)NC(=O)[C@H](CO)NC1=O)C(=O)N[C@@H](CC(C)C)C(=O)N[C@@H](CCC(=O)O)C(=O)N[C@@H](CCCNC(=N)N)C(=O)N3)NC(=O)[C@H](CCCCN)NC(=O)CNC(=O)[C@H](CC(N)=O)NC(=O)[C@H](CCSC)NC2=O [P17R] (H-GVIINVKCKISRQCLERCKKAGMRFGKCMNGKCHCTPK-OH; disulfide 8-28, 14-33, 18-35) | < 0.00152 | 0.0104 |
| CC[C@H](C)[C@@H]1NC(=O)[C@H](CCCCN)NC(=O)[C@@H](NC(=O)[C@H](CCCCN)NC(=O)[C@@H](NC(=O)[C@H](CC(N)=O)NC(=O)[C@@H](NC(=O)[C@@H](NC(=O)[C@@H](NC(=O)CN)C(C)C)[C@@H](C)CC)[C@@H](C)CC)C(C)C)CSSC[C@@H]2NC(=O)[C@H](CCCCN)NC(=O)CNC(=O)[C@H](Cc3ccccc3)NC(=O)[C@H](CCCNC(=N)N)NC(=O)[C@H](CCSC)NC(=O)CNC(=O)[C@H](C)NC(=O)[C@H](CCCCN)NC(=O)[C@H](CCCCN)NC(=O)[C@@H]3CSSC[C@@H](C(=O)N[C@H](C(=O)N[C@@H](Cc4cccc5ccccc45)C(=O)N[C@@H](CCCCN)C(=O)O)[C@@H](C)O)NC(=O)[C@H](Cc4c[nH]cn4)NC(=O)[C@H](CSSC[C@H](NC(=O)[C@H](CCC(N)=O)NC(=O)[C@H](CCCNC(=N)N)NC(=O)[C@H](CO)NC1=O)C(=O)N[C@@H](CC(C)C)C(=O)N[C@@H](CCC(=O)O)C(=O)N1CCC[C@H]1C(=O)N3)NC(=O)[C@H](CCCCN)NC(=O)CNC(=O)[C@H](CC(N)=O)NC(=O)[C@H](CCSC)NC2=O [P37Nal] (H-GVIINVKCKISRQCLEPCKKAGMRFGKCMNGKCHCT[1Nal]K-OH; disulfide 8-28, 14-33, 18-35) | 0.00674 | 0.0708 |
